# Results taken from paper PMC6017357, “In Vitro Inhibitory Effects of Synthetic Cannabinoid EAM-2201 on Cytochrome P450 and UDP-Glucuronosyltransferase Enzyme Activities in Human Liver Microsomes” (Molecules : A Journal of Synthetic Chemistry and Natural …, 2018).
# Tests used:
# [1] = human liver microsomes; cited from earlier work
# CYP2D6 = target: T1, CYP2D6 (Homo sapiens, UniProt P10635); assay: CYP2D6-mediated bufuralol 1′-hydroxylation in pooled human liver microsomes; type: in vitro ADME; conditions: up to 50 µM, without 30-min preincubation
# T1 construct: from tissue; host or cells: ultrapooled human liver microsomes
# Protocol: The inhibitory potential (IC50 values) of EAM-2201 on CYP1A2, CYP2A6, CYP2C8, CYP2C9, CYP2C19, CYP2D6 and CYP3A4 were evaluated using ultrapooled human liver microsomes and a cocktail of seven CYP substrates followed by LC-tandem mass spectrometry (LC-MS/MS) as previously described. […] Aliquots (5 µL) of the diluted supernatants were analyzed using LC-MS/MS. […]
# The metabolites formed from CYP substrates were simultaneously quantified using our previously described LC-MS/MS method. […] Quantification was performed by selected reaction monitoring (SRM) of the [M + H]^+ ion and the related product ion for each metabolite: acetaminophen, 152.1 > 110.3; N-desethylamodiaquine, 328.1 > 283.0; 7-hydroxycoumarin, 163.0 > 107.2; 4-hydroxybupropion, 256.1 > 238.0; 4′-hydroxydiclofenac, 312.0 > 231.1; 4′-hydroxy-mephenytoin, 235.1 > 150.1; 1′-hydroxybufuralol, 278.1 > 186.1; 1′-hydroxymidazolam, 341.9 > 324.0; ^13C2,^15N-acetaminophen, 155.1 > 111.2; and d9-1′-hydroxybufuralol, 287.2 > 187.0. […]
# T1 sequence (P10635 whole entry): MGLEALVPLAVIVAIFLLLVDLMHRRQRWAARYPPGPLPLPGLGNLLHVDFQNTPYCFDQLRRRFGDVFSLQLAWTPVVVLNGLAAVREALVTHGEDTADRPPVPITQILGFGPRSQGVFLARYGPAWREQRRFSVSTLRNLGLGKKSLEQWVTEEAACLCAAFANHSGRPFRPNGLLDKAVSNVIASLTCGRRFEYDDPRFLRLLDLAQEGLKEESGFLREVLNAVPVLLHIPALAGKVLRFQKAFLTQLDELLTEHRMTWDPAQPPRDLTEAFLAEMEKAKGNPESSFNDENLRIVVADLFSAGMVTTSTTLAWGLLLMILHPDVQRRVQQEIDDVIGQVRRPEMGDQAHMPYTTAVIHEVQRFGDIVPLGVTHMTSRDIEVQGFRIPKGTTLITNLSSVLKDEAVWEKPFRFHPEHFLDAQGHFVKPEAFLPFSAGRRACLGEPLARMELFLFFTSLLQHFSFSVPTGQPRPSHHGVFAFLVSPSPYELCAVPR
smiles,measurement,setting,value
"CCc1ccc(C(=O)c2cn(CCCCCF)c3ccccc23)c2ccccc12 [EAM-2201, (4-ethyl-1-naphthalenyl)[1-(5-fluoropentyl)-1H-indol-3-yl]-methanone]",number of metabolites,[1],37 metabolites
same,inhibition of CYP2D6-mediated bufuralol 1′-hydroxylation,CYP2D6,negligibly inhibited
